From US11981919B2, “Methods for forming three-dimensional human retinal tissue in vitro” (THE JOHNS HOPKINS UNIVERSITY, priority 2014, dated 2024)

Key:
[1] = tested on: CB-iPSC6.2-derived retinal cups (RCs); experiment: Retinoic acid treatment of hiPSC-derived retinal cups, rod-opsin expression by immunohistochemistry; assay type: cell-based, human; conditions: for rod-opsin expression (qualitative, microscopic observation): 3 independent experiments
Procedure: (§1) To promote photoreceptor maturation, suspension cultures of RCs were supplemented daily with 1 μM all-trans retinoic acid (RA; Sigma) at various time windows: W7-W17; W7-W14 or W10-W14; subsequently, RA concentration was decreased to 0.5 μM.
(§2) RCs were fixed in 4% PFA for 30 min. […] DAPI was used for nuclear counterstaining (Molecular Probes).

[2] = tested on: KA.1- and IMR90-4-derived RCs; experiment: as above; assay type: cell-based, human; conditions: RA treatment in W10-W14
Procedure: as §1, §2

CC1=C(/C=C/C(C)=C/C=C/C(C)=C/C(=O)O)C(C)(C)CCC1 [retinoic acid, all-trans retinoic acid]
rod-opsin expression (qualitative, microscopic observation) ([1]; 1 μM RA during W10-W14, W17 and W21): dispersed cells with strong rod-opsin expression in their cell bodies already at W17
rod-opsin expression (qualitative, microscopic observation) ([1]; 1 μM RA in W7-W14): low levels of rod-opsin expression in the distal part of photoreceptor cells
retinal cups showing dispersed cells with higher rod-opsin expression, also in cell bodies ([1]; 1 μM retinoic acid W10-W14, evaluated at W17, n=8): ~50%
retinal cups showing a significant increase in the number of photoreceptors expressing rod opsin ([1]; 1 μM retinoic acid W10-W14, evaluated by W21, n=20): 90%
rod-opsin expression (qualitative, microscopic observation) [2]: induction of rod-opsin expression was also observed, although at a later time and less efficiently than in CB-iPSC6.2-derived RCs
